# Test results: a melting point compilation (Tetko et al.; mined from patent text by program, amines drawn as free bases though some values may be those of a salt)
row,melting point,Structure (SMILES)
1,93 °C,CCc1cc2c(cc1CC)C(=O)CCC2
2,145 to 146 °C,CC(C)(/C=C/I)C(=O)Nc1ccc(Cl)cc1
3,113 to 115 °C,CCCc1c(OCCCOc2cc([N+](=O)[O-])c(Cl)cc2C)ccc(C(C)=O)c1O
4,201 to 202 °C,Oc1cccc(-c2nc3n(n2)CCc2ccccc2-3)c1
5,245 to 246 °C,CC(C)n1nc(-c2sc(NC(=O)c3ccccn3)nc2-c2ccccc2)ccc1=O
6,225 to 226 °C,O=C(Nc1cnc2sc(CO)nc2c1)c1cc2cc(F)ccc2n1Cc1cccc(F)c1
7,> 300 °C,O=c1[nH]c2c([nH]c1=O)C(O)c1ccccc1-2 (stereo unspecified)
8,207 to 208 °C,CCOc1ccn2c(C)c(CCc3ccc4nc(N)oc4c3)nc2c1
9,50 to 51 °C,C=CCONC(CCC)=C1C(=O)OC(CCC)=C(Br)C1=O
10,140 to 143 °C,CCN(CC)c1ccc(C2(c3c(C)n(CCOC)c4ccccc34)OC(=O)c3ccccc32)c(C)c1 (stereo unspecified)
11,126 to 127 °C,OC12CCCC1N=C(S)N2c1ccccn1 (stereo unspecified)
12,102 °C,O=C1c2cccc(N3CCCC3)c2OC12CC2
13,207 to 212 °C,CSC1(N)N=C(N(C)C)N=C(N)N1 (stereo unspecified)
14,133 to 134 °C,CCCCCN(CCCCC)C(=O)N1CCN(C(=O)N(c2ccccc2)c2ccccc2)[C@H](CO)C1
15,64 °C,Cc1cccc(C(=O)C2CC2)c1N
16,218 to 220 °C,CCOC(=O)c1[nH]c2cc(Cl)cc(Cl)c2c1I
17,116 to 118 °C,COc1ccc2c(c1)C(=O)CCC21CCC(=O)N(C)C1=O (stereo unspecified)
18,77 to 80 °C,CCCCCCN(Cc1ccc(N(C)C)cc1)c1c(N[C@@H](Cc2ccccc2)C(=O)O)c(=O)c1=O
19,75 to 76 °C,COc1ccc(CCc2nccn3c(Br)cc(Br)c23)cc1
20,115 to 116 °C,CCCc1csc(/C=C/c2cccc(NCCCC(=O)O)c2)n1
21,44 to 47 °C,CCCCCCCCCCCCCCCOCCSCCCO

row,melting point,Structure (SMILES)
1,215 to 218 °C,O=c1c2c(c1=O)N(CCP(=O)(O)O)CC(O)CN2 (stereo unspecified)
2,285 to 288 °C,CS(=O)(=O)c1ccc(-c2nc(C(F)(F)F)nc(N=[N+]=[N-])c2-c2ccc(F)cc2)cc1
3,120 to 121 °C,O=C(NCCCC(=O)N1CCCC1)c1cc(Br)no1
4,49 to 50 °C,COC(=O)c1cnc(Cl)c(C)n1
5,136 °C,CC(=O)C(C)c1ccc2c(c1)Cc1cccnc1O2 (stereo unspecified)
6,99 to 105 °C,CN1CCN(c2cc(Cl)cc3c2c(=O)n(Cc2ccc(C#N)cc2)c(=O)n3Cc2ccccc2)CC1
7,170 to 171 °C,CSc1noc(-c2ccc(OCCOc3ccc([N+](=O)[O-])cc3)cc2)c1C#N
8,178 to 180 °C,CCOC(=O)c1ccc(-n2ccc(=O)cc2)cc1
9,122 to 125 °C,CCCc1c(Br)c2ccc(C(N)=O)cc2n1Cc1ccccc1Br
10,225 to 262 °C,Cn1ccc2ccc(N3Cc4c(cccc4[N+](=O)[O-])C3=O)cc21
11,180 to 181 °C,O=C(Nc1c[nH]nc1C(=O)NCCSc1ccccc1)c1ccccn1
12,109 to 110 °C,Cc1ccc(C)c2oc(CN3CCC[C@@H](OCc4cc(C(F)(F)F)cc(C(F)(F)F)c4)[C@H]3c3ccccc3)nc12 (relative stereo)
13,115 °C,Cc1nc2c(OCc3c(Cl)ccc(S(=O)(=O)N4CCC[C@H]4C(=O)NCCCNC(=O)c4ccc(C#N)cc4)c3Cl)cccn2c1Cl
14,177 to 180 °C,O=C(O)CCCn1c(-c2ccc3c(c2)OCO3)nc2ccccc21
15,230 to 231 °C,O=C1CCC(C=Cc2ccc(-n3ccnc3)cc2)=NN1
16,> 230 °C,c1ccc(CN2CCN(CC3CCc4ccccc4O3)CC2)cc1 (stereo unspecified)
17,145 to 146 °C,CCOC(=O)Cc1ccc(NC2=NN(c3ccc(C)cc3)CC2)cc1
18,192 to 194 °C,COc1cc2c(cc1Nc1ncc(Cl)c(Nc3ccccc3OC)n1)CCOC(=O)N2C
19,132 to 134 °C,COC(=O)C(O)C(Sc1ccc2ccccc2c1N)c1ccc(OC)cc1 (stereo unspecified)
20,121 to 122 °C,CCOC(=O)Cc1ccc(-c2nc(COc3ccc(CCl)cc3OC)c(C)o2)cc1
